From patent US7989466B2, “Methods to inhibit or augment an inflammatory response” (Cambridge Enterprise Limited, priority 1999, dated 2011)
pEC50: −log10 of the molar value. Read-outs that look alike come from different tables or passages of the source. Marks after values point to notes of the source that are not given here. Positions of bridges follow the written chain, without caps; N, C: chain ends. No end group written: not given here. *: point of attachment. Biotin = O=C1N[C@H]2[C@H](CS[C@H]2CCCCC(=O)*)N1

Legend:
[1] = tested on: MCP-1 induced THP-1 migration; experiment: THP-1 trans-well migration assay, MCP-1 as chemoattractant; type: cell-based, human
Experimental: (§1) To determine whether an agent inhibits a chemokine-induced activity, such as macrophage recruitment, varying amounts of the agent are mixed with cells in the presence of a known chemoattractant. For example, a range of known concentrations of an agent, e.g., a chemokine peptide, is incubated with a defined number (e.g., 10^4-10^6) of human THP-1 monocyte cells in individual wells of the top compartment of a trans-well plate. Chemokine (such as MCP-1, MIP1α, IL8 or SDF-1α), at a concentration known to cause significant migration of THP-1 cells in the trans-well migration assay, is placed in the lower compartment (FIG. 1). Cells are then incubated at 37° C. for a period sufficient to allow migration, e.g., 4 hours. After incubation, the cells are gently removed from the top of the filter with a pipette, 20 μl of 20 mM EDTA in simple PBS is added into each top well, and incubated for 20 minutes at 4° C. The filter is carefully flushed with media using a gentle flow, and removed. A standard curve consisting of a two-fold dilution series of THP-1 cells (in 29 μl) is prepared to accurately quantify the number of cells that have migrated. Migrated cells are stained with 3 μl of MTT stock dye solution which is added directly into each well (5 mg/ml in RPMI-1640 without phenol red, Sigma Chemical Co.) and incubated at 37° C. for 4 hours. The media is carefully aspirated from each well, and the converted dye is solubilized by 20 μl of DMSO. Absorbance of converted dye is measured at a wavelength of 595 nm using an ELISA plate reader. The number of migrated cells in each well is then determined by interpolation of the standard curve (see also Imai et al., J. Biol. Chem., 272, 15036 (1997)).
(§2) For this assay, THP-1 cells were maintained at a density of 4×10^5 cells per ml in RPMI-1640 supplemented with 10% fetal calf serum+20 μM 2-mercaptoethanol. Chemotaxis was induced in a 96-well disposable chemotaxis chamber fitted with a […] polycarbonate filter (PVP free, ChemoTX, Neuroprobe Inc., Cabin John). Twenty-nine μl of chemoattractant (recombinant human chemokine; 50 ng/ml, i.e., 5.9 nM) or control (100 ng/ml TGFβ) was added to the lower compartment of each well. The framed filter was aligned with the holes in the corner of the filter frame and placed over the wells. Five×10^4 THP-1 cells in 25 μl of RPMI-1640 were added to the upper compartment. Peptides were dissolved in Milli Q water and then serially diluted in culture medium. In most cases, the serially diluted peptides were added to the upper compartment of the chemotaxis chamber. The chamber was incubated at 37° C. in a humidified atmosphere of 5% CO2 for 4 hours.
(§3) After incubation, the cells were gently removed from the top of the filter with a pipette, 20 μl of 20 mM EDTA in PBS was added into each top well, and the mixture was incubated for 20 minutes at 4° C. The filter was then carefully flushed with media using a gentle flow, and removed. A standard curve was prepared to accurately quantify the number of THP-1 cells that had migrated. The curve was based on a two-fold dilution series of THP-1 cells (top standard 100,000 cells in 29 μl). Cells which had migrated, and in separate wells, the cells in the standards, were stained with 3 μl of MTT stock solution which was added directly into each well (5 mg/ml in RPMI 1640 without phenol red, Sigma Chemical Co.) and incubated at 37° C. for 4 hours. The media was carefully aspirated from each well, and the converted dye was solubilized by 20 μl of DMSO. Absorbance of converted dye was measured at a wavelength of 595 nm using an ELISA plate reader. The number of cells that had migrated in each well was determined by interpolation of the standard curve.

[2] = tested on: chemokine-induced THP-1 migration; experiment: THP-1 trans-well migration assay, panel of chemokines (MCP-1, MIP1α, IL-8, SDF1α); type: cell-based, human; settings: for effect on THP-1 migration induced by the chemokine panel, in words / Chemokine antagonist: MCP-1, MIP1α; for effect on THP-1 migration induced by the chemokine panel, in words: IL-8, SDF1α; for CC SPECIFICITY: average inhibitory ED50 versus SDF1 and IL8 divided by average inhibitory ED50 versus MCP-1 and MIP1α; for Chemokine antagonist: active against at least one of IL-8, SDF-1α
[3] = tested on: MIP1α induced THP-1 migration; experiment: THP-1 trans-well migration assay, MIP1α as chemoattractant; type: cell-based, human; settings: n.s. = no statistically significant inhibition (p > 0.05); read-out: ED50 versus MIP1α, inhibition of THP-1 migration
Experimental: as §1, §2, §3

[4] = tested on: IL8 induced THP-1 migration; experiment: THP-1 trans-well migration assay, IL-8 as chemoattractant; type: cell-based, human; settings: for pEC50: n.s. = no statistically significant inhibition (p > 0.05), read-out: ED50 versus IL8, inhibition of THP-1 migration
Experimental: as §1, §2, §3

[5] = tested on: SDF-1α induced THP-1 migration; experiment: THP-1 trans-well migration assay, SDF-1α as chemoattractant; type: cell-based, human; settings: n.s. = no statistically significant inhibition (p > 0.05); read-out: ED50 versus SDF-1α, inhibition of THP-1 migration
Experimental: as §1, §2, §3

[6] = tested on: TGFβ1 induced THP-1 migration; experiment: THP-1 trans-well migration assay, TGFβ1 as non-chemokine control; type: cell-based, human; settings: n.s. = no statistically significant inhibition (p > 0.05)
Experimental: Any method suitable for counting cells can be used, for example, counting with a hemocytometer, incubation of the cells with MTT (see above), or FACS analysis. A negative control assay is also performed, using TGF-β or another non-chemokine chemoattractant (e.g., IL1β or TNFα). To assess whether the agent is cytotoxic, the same concentrations of agent are incubated with THP-1 cells. Agents which 1) are not cytotoxic at levels which inhibit migration, 2) are ineffective at inhibiting the negative control-induced migration, and 3) reduce or inhibit chemokine-induced THP-1 migration, are agents which fall within the scope of the invention.
Chemotaxis was induced in a 96-well disposable chemotaxis chamber fitted with a […] polycarbonate filter (PVP free, ChemoTX, Neuroprobe Inc., Cabin John). […] The framed filter was aligned with the holes in the corner of the filter frame and placed over the wells. […] Peptides were dissolved in Milli Q water and then serially diluted in culture medium. In most cases, the serially diluted peptides were added to the upper compartment of the chemotaxis chamber. The chamber was incubated at 37° C. in a humidified atmosphere of 5% CO2 for 4 hours.
After incubation, the cells were gently removed from the top of the filter with a pipette, 20 μl of 20 mM EDTA in PBS was added into each top well, and the mixture was incubated for 20 minutes at 4° C. The filter was then carefully flushed with media using a gentle flow, and removed. […] The curve was based on a two-fold dilution series of THP-1 cells (top standard 100,000 cells in 29 μl). […] The media was carefully aspirated from each well, and the converted dye was solubilized by 20 μl of DMSO.

[7] = tested on: chemokine receptors on THP-1 cells; experiment: Binding to chemokine receptors on THP-1 cells; set-up: species or system human
Experimental: In general, specific binding is calculated as the amount of labeled agent bound in the absence of cold competitor minus the amount of labeled agent bound in the presence of cold competitor. The amount of specific binding in the presence of varied amounts of cold competitor can be used to determine the association constant for the agent, as well as the number of binding sites on the cell for the agent, using, for example, Scatchard Analysis. The agent may be labeled by radiolabeling (e.g., iodination) or with a suitable biochemical tag (e.g., biotin) or by addition of a photoactivatable crosslinking group. Agents with an association constant lower than 100 μM (i.e., which bind more strongly than an agent with an association constant of 100 μM) and which have at least about 2,500, preferably at least about 10,000, and more preferably greater than 25,000, binding sites per cell for at least one cell type which expresses a chemokine receptor, fall under the scope of this invention. THP-1 cells have at least about 5,000 MCP-1 receptors/cell.
For example, monocytes are suspended in RPMI 1640 medium without bicarbonate containing 0.2% bovine serum albumin and 0.1% azide. Radiolabeled chemokine peptide is incubated with 1-2×10^6 cells, e.g., THP-1 cells, in the presence or absence of increasing concentrations of unlabeled chemokine (MCP-1, MCP-3, MCP-4, RANTES or MIP-1α) for 15 minutes at 37° C. in a 96-well plate in a final volume of 0.2 ml (e.g., PBS+0.5% FCS). After the incubation, 0.5 ml of ice-cold wash buffer (20 mM Tris, 0.5 M NaCl, pH 7.4) is added, and cells are collected onto a polyethyleneimine-treated Whatman GF/C filter using a Brandall cell harvester. Filters are washed with 4 ml of cold wash buffer, and the radioactivity bound to the filters is counted in a γ-counter.
For Scatchard analysis, the absorbance readings at 450 nm were calibrated, by reference to a standard curve in which known amounts of labeled peptide were coupled to derivatized sepharose beads (activated thiol-sepharose 4B; Sigma T8512) via the cysteine residue in each peptide. Briefly, known amounts (1 fmol to 1 pmol) of biotin-labeled peptide were incubated with 1 mg of activated thiol-sepharose beads in 100 μl of PBS at 37° C. for 1 hour. Free activated thiols were then blocked by addition of cysteine to a final concentration of 10 mM. The peptide-conjugated beads were then washed 5 times in PBS and treated exactly as for the cells described above. The absorbance at 450 nm obtained when a known amount of peptide was coupled to the beads was used to construct a standard curve which was used to convert the absorbance readings obtained with cells into number of molecules of labeled peptide which had bound.

[8] = Homo sapiens, THP-1, agent with the cells in the upper compartment, n.s. = no statistically significant inhibition (p > 0.05), read-out: ED50 versus MCP-1, inhibition of THP-1 migration
[9] = average inhibitory ED50 for inhibition of THP-1 migration induced by each of the chemokines, read-out: AVERAGE ED50
[10] = agent with the cells in the upper compartment, n.s. = no statistically significant inhibition (p > 0.05), read-out: ED50 versus MCP-1, inhibition of THP-1 migration

CCC1(c2ccccc2)CCC(=O)NC1=O (centres unmarked) [Glutethimide, reference compound]
pEC50 ([1]; Homo sapiens, THP-1, read-out: ED50 versus MCP-1, inhibition of THP-1 migration): 4.30

Cc1cc(C(C)(C)C)c(O)c(C)c1CC1=NCCN1 [Oxymetazoline, reference compound]
pEC50 [1, 8]: 4.12

O=C1NC(=O)C(c2ccccc2)(c2ccccc2)N1 [Phenytoin, reference compound]
pEC50 [1, 8]: 5.00

COC(=O)[C@@H]1[C@H]2C[C@H]3c4[nH]c5ccccc5c4CCN3C[C@@H]2CC[C@@H]1O [Yohimbine, reference compound]
pEC50 ([1]; Homo sapiens, THP-1, read-out: ED50 versus MCP-1 induced chemotaxis of THP-1): 7.52

COC(=O)[C@H]1[C@H]2C[C@H]3c4[nH]c5ccccc5c4CCN3C[C@H]2CC[C@@H]1O [α-Yohimbine, reference compound]
pEC50 ([1]; read-out: ED50 versus MCP-1 induced chemotaxis of THP-1): 6.30

-CQVWKQKPDAC-- (disulfide 1-11; not fully specified (some residues, C-terminus); printed as -CQVWKQKPDAC--; also: CRD: cyclic reverse-D derivative, D-residues shown in italics, not given here) [CRD-Cys13pep3[3-12]]
pEC50 [2, 9]: 6.10

APG [reference compound]
effect on THP-1 migration induced by the chemokine panel, in words [2]: None of these significantly inhibited migration

CADPKQKWVQ [Peptide 3[3-12]]
pEC50 [1, 10]: 5.10
pEC50 [3]: 5.15
pEC50 [4]: 5.05
pEC50 [5]: 5.05
ED50 versus TGFβ1, inhibition of THP-1 migration [6]: n.s.

CLDPKQKWIQC [unlabeled peptide]
pEC50 [1, 10]: ~5.05

EICADP [Peptide 3[1-6]]
pEC50 [1, 10]: 4.48
pEC50 [3]: 4.60
pEC50 [4]: 4.77
pEC50 [5]: 4.72
ED50 versus TGFβ1, inhibition of THP-1 migration [6]: n.s.
pEC50 ([2]; THP-1 migration, read-out: ED50 for inhibiting the CC chemokines): ~4.52
pEC50 [2, 9]: 4.62
CC SPECIFICITY [2]: 0.7

EICADPKQKWIQ [Ile11peptide 3]
pEC50 [1, 10]: 5.22
pEC50 [3]: 5.40
pEC50 [4]: 5.70
pEC50 [5]: 5.15
ED50 versus TGFβ1, inhibition of THP-1 migration [6]: n.s.
selectivity of IL-8 over other chemokines [2]: about 3 fold
pEC50 [2, 9]: 5.30
CC SPECIFICITY [2]: 0.9

EICADPSEEWVQ [Ser7Glu8Glu9pep3]
pEC50 [1, 10]: 5.15
pEC50 [3]: 5.70
pEC50 [4]: 5.05
pEC50 [5]: 5.30
ED50 versus TGFβ1, inhibition of THP-1 migration [6]: n.s.
selectivity ratio for MIP1α versus all other chemokines [2]: about 3 fold
pEC50 [2, 9]: 5.22

ELRVIESGPHCANTEI [Pep2[IL8]]
AVERAGE ED50, peptide 2 family: estimated ka for binding to THP-1 cells [7]: 1-10^e μM

GGR [reference compound]
effect on THP-1 migration induced by the chemokine panel, in words [2]: None of these significantly inhibited migration

KAK
Chemokine antagonist [2]: +

KEN
percentage inhibition of migration induced by MCP-1 ([1]; tripeptide at 100 μM, mean ± range of two experiments, dash = no statistically significant reduction in migration): 21 ± 2^ %
percentage inhibition of migration induced by IL-8 ([4]; tripeptide at 100 μM, mean ± range, dash = no statistically significant reduction in migration): 70 ± 4%
CC SPECIFICITY [2]: <0.1
pEC50 ([2]; footnote f, KQK MCP-1, SEE MIP1α, KLK SDF1, KEN IL8, read-out: ED50 of a tripeptide against the one chemokine it is highly specific for): 5.00 to 7.00

KNK
Chemokine antagonist [2]: +++

RGD [reference compound]
effect on THP-1 migration induced by the chemokine panel, in words [2]: None of these significantly inhibited migration

TTT [reference compound]
effect on THP-1 migration induced by the chemokine panel, in words [2]: None of these significantly inhibited migration

WGQ
pEC50 [1, 10]: ~5.76

WIQ
pEC50 [2, 9]: 5.70
CC SPECIFICITY [2]: 1.0

n′-CLDPKQKWIQC-c′ (Biotin-CLDPKQKWIQC; cysteine pairing not given here) [labeled peptide, N-terminal biotin conjugate]
pEC50 [1, 10]: ~5.40
